We go through 9 compounds from US7026518B2 (Laila Impex, priority 2002, dated 2006).

The melting point is the temperature, or range, at which the solid turns liquid.

Data set [1] is described as follows: Superoxide scavenging activity (NBT), McCord and Fridovich method. The conditions noted are these: light induced superoxide generation by riboflavin, reduction of NBT. The method, then:
Antioxidant (superoxide scavenging) activity of these compounds are determined by conventional methods like McCord and Fridovich method, which is based on light induced superoxide generation by riboflavin and corresponding reduction of NBT. The assay mixture contains phosphate buffer, EDTA, NBT and riboflavin. Different concentrations of these compounds were assessed and their optical densities measured before and after illumination. The percentage value of inhibition of superoxide production by the compounds of this invention was evaluated and compared with the absorbance value of control and experimental data.

With `CN(C)CCOc1cc(O)cc(/C=C/c2ccc(O)cc2)c1` [Compound 8, 3-[(1E)-2-(4-hydroxyphenyl)vinyl]-5-[2-(dimethylamino)ethoxy] phenol], the melting point lay within 92 to 94 °C. Further, the “Superoxide scavenging activity (NBT) IC50” value in data set [1] worked out at 34.1 µg/mL.
Take `O=C(Oc1cc(/C=C/c2ccc(O)cc2)cc(OC(=O)c2cc(O)c(O)c(O)c2)c1)c1cc(O)c(O)c(O)c1` [Compound 5, 3-[(1E)-2-(4-hydroxyphenyl)vinyl]-5-(3,4,5trihydroxyphenylcarbonyloxy)-phenyl 3,4,5-trihydroxybenzoate]: the “Superoxide scavenging activity (NBT) IC50” value in data set [1] is 17.5 µg/mL.
`Cl.NCC(=O)Oc1cc(O)cc(/C=C/c2ccc(O)cc2)c1` [Compound 9, 5-[(1E)-2-(4-hydroxyphenyl)vinyl]-3-hydroxyphenyl 2-aminoacetate hydrochloride]: the “Superoxide scavenging activity (NBT) IC50” value in data set [1] worked out at 29.3 µg/mL.
As to `O=C(/C=C/c1ccc(O)c(O)c1)Oc1cc(O)cc(/C=C/c2ccc(O)cc2)c1` [Compound 6, 5-[(1E)-2-(4-hydroxyphenyl)vinyl]-3-hydroxyphenyl(2E)-3(3,4-dihydroxyphenyl) prop-2-enoate], the “Superoxide scavenging activity (NBT) IC50” value in data set [1] came to 9.2 µg/mL.
Still for that read-out and setting: in the case of `O=C(Oc1cc(O)cc(/C=C/c2ccc(O)cc2)c1)c1cc(O)c(O)c(O)c1` [Compound 4, 5-[(1E)2-(4-hydroxyphenyl)vinyl]-3-hydroxyphenyl 3,4,5-trihydroxybenzoate] it was 16.0 µg/mL.
Take `O=C(/C=C/c1cc(O)c(O)c(O)c1)Oc1cc(O)cc(/C=C/c2ccc(O)cc2)c1` [Compound 7, 5-[(1E)-2-(4-hydroxyphenyl)vinyl]-3-hydroxyphenyl(2E)3(3,4,5-trihydroxyphenyl) prop-2-enoate]: in data set [1], the “Superoxide scavenging activity (NBT) IC50” value is 10.0 µg/mL.
As to `Oc1ccc(/C=C/c2cc(O)c(O)c(O)c2)cc1O` [Compound 1, 5-[(1E)-2-(3,4-dihydroxyphenyl)vinyl]-benzene1,2,3-triol], the melting point fell in the range of 150 to 152 °C. In data set [1], the “Superoxide scavenging activity (NBT) IC50” value was found to be 3.0 µg/mL.
`Oc1cc(/C=C/c2cc(O)c(O)c(Br)c2)cc(O)c1O` [Compound 2, 5-[(1E)-2-(5-Bromo-3,4-dihydroxyphenyl)vinyl]-benzene1,2,3-triol] came in with a melting point of 180 to 182 °C. Further, the “Superoxide scavenging activity (NBT) IC50” value in data set [1] was 8.1 µg/mL.
As for `Oc1cc(/C=C/c2cc(O)c(O)c(O)c2)cc(O)c1O` [Compound 3, 5-[(1E)-2-(3,4,5-trihydroxyphenyl)vinyl]-benzene1,2,3-triol], in data set [1], the “Superoxide scavenging activity (NBT) IC50” value was 0.9 µg/mL.
